Legend:
Assay type in all cases: in vivo
[1] = test system: ABUTH Abutilon theophrasti; experiment: Pre-emergence herbicidal action against harmful plants; conditions: scored visually after 3 weeks vs untreated controls
From the text: (§1) The abbreviations used for the harmful plants mean: • ABUTH Abutilon theophrasti ALOMY Alopecurus myosuroides • AVEFA Avena fatua AMARE Amaranthus retroflexus • CYPES Cyperus esculentus DIGSA Digitaria sanguinalis • ECHCG Echinochloa crus-galli HORMU Hordeum murinum • LOLMU Lolium multiflorum LOLRI Lolium rigidum • MATIN Matricaria inodora PHBPU Pharbitis purpurea • POLCO Polygonum convolvulus SETVI Setaria viridis • STEME Stellaria media VERPE Veronica persica • VIOTR Viola tricolor 1. Pre-Emergence Herbicidal Action Against Harmful Plants Seeds of monocotyledonous and dicotyledonous weed plants and crop plants are laid out in sandy loam soil in wood-fiber pots and covered with soil. The compounds of the invention, formulated in the form of wettable powders (WP) or as emulsion concentrates (EC), are then applied to the surface of the covering soil in the form of an aqueous suspension or emulsion at a water application rate equivalent to 600 to 800 l/ha, with addition of 0.2% wetting agent. After the treatment, the pots are placed in a greenhouse and kept under good growth conditions for the trial plants. The damage to the test plants is scored visually after a test period of 3 weeks by comparison with untreated controls (herbicidal activity in percent (%): 100% activity=the plants have died, 0% activity=like control plants). […] The tables below illustrate, in an illustrative manner, the post-emergence herbicidal action of the compounds of the invention, the herbicidal activity being stated in percent.

[2] = test system: ALOMY Alopecurus myosuroides; experiment: as above; conditions: 80 g/ha, scored visually after 3 weeks vs untreated controls
From the text: as §1

[3] = test system: AMARE Amaranthus retroflexus; experiment: as above; conditions: scored visually after 3 weeks vs untreated controls
From the text: as §1

[4] = test system: DIGSA Digitaria sanguinalis; experiment: as above; conditions: scored visually after 3 weeks vs untreated controls
From the text: as §1

[5] = test system: ECHCG Echinochloa crus-galli; experiment: as above; conditions: scored visually after 3 weeks vs untreated controls
From the text: as §1

LOLRI Lolium rigidum = experiment: as above; conditions: scored visually after 3 weeks vs untreated controls
From the text: as §1

MATIN Matricaria inodora = experiment: as above; conditions: scored visually after 3 weeks vs untreated controls
From the text: as §1

PHBPU Pharbitis purpurea [6] = experiment: as above; conditions: scored visually after 3 weeks vs untreated controls
From the text: as §1

[7] = test system: POLCO Polygonum convolvulus; experiment: as above; conditions: scored visually after 3 weeks vs untreated controls
From the text: as §1

SETVI Setaria viridis = experiment: as above; conditions: scored visually after 3 weeks vs untreated controls
From the text: as §1

[8] = test system: AMARE Amaranthus retroflexus; experiment: Post-emergence herbicidal action against harmful plants; conditions: one-leaf stage, assessed visually after about 3 weeks vs untreated controls
From the text: (§2) The abbreviations used for the harmful plants mean: • ABUTH Abutilon theophrasti ALOMY Alopecurus myosuroides • AVEFA Avena fatua AMARE Amaranthus retroflexus • CYPES Cyperus esculentus DIGSA Digitaria sanguinalis • ECHCG Echinochloa crus-galli HORMU Hordeum murinum • LOLMU Lolium multiflorum LOLRI Lolium rigidum • MATIN Matricaria inodora PHBPU Pharbitis purpurea • POLCO Polygonum convolvulus SETVI Setaria viridis • STEME Stellaria media VERPE Veronica persica • VIOTR Viola tricolor 2. Post-Emergence Herbicidal Action Against Harmful Plants Seeds of monocotyledonous and dicotyledonous weed and crop plants are laid out in sandy loam soil in wood-fiber pots, covered with soil and cultivated in a greenhouse under good growth conditions. 2 to 3 weeks after sowing, the test plants are treated at the one-leaf stage. The compounds of the invention, formulated in the form of wettable powders (WP) or as emulsion concentrates (EC), are then sprayed onto the green parts of the plants in the form of an aqueous suspension or emulsion at a water application rate equivalent to 600 to 800 l/ha, with addition of 0.2% wetting agent. After the test plants have been left to stand in the greenhouse under optimal growth conditions for about 3 weeks, the action of the preparations is assessed visually in comparison to untreated controls (herbicidal action in percent (%): 100% activity=the plants have died, 0% activity=like control plants). […] The tables below illustrate, in an illustrative manner, the post-emergence herbicidal action of the compounds of the invention, the herbicidal activity being stated in percent.

PHBPU Pharbitis purpurea [9] = experiment: as above; conditions: one-leaf stage, assessed visually after about 3 weeks vs untreated controls
From the text: as §2

[10] = test system: DIGSA Digitaria sanguinalis; experiment: as above; conditions: one-leaf stage, assessed visually after about 3 weeks vs untreated controls
From the text: as §2

[11] = test system: ECHCG Echinochloa crus-galli; experiment: as above; conditions: 20 g/ha, one-leaf stage, assessed visually after about 3 weeks vs untreated controls
From the text: as §2

Compound	Pre-emergence action at 80 g/ha against ABUTH in % [1] [%]	Pre-emergence action at 80 g/ha against ALOMY in % [2] [%]	Pre-emergence action at 20 g/ha against AMARE in % [3] [%]	Pre-emergence action at 80 g/ha against AMARE in % [3] [%]	Pre-emergence action at 20 g/ha against DIGSA in % [4] [%]	Pre-emergence action at 80 g/ha against DIGSA in % [4] [%]	Pre-emergence action at 80 g/ha against ECHCG in % [5] [%]	Pre-emergence action at 80 g/ha against LOLRI in % (LOLRI Lolium rigidum) [%]	Pre-emergence action at 80 g/ha against MATIN in % (MATIN Matricaria inodora) [%]	Pre-emergence action at 80 g/ha against PHBPU in % (PHBPU Pharbitis purpurea [6]) [%]	Pre-emergence action at 80 g/ha against POLCO in % [7] [%]	Pre-emergence action at 80 g/ha against SETVI in % (SETVI Setaria viridis) [%]	Post-emergence action at 5 g/ha against AMARE in % [8] [%]	Post-emergence action at 20 g/ha against AMARE in % [8] [%]	Post-emergence action at 20 g/ha against PHBPU in % (PHBPU Pharbitis purpurea [9]) [%]	Pre-emergence action at 20 g/ha against MATIN in % (MATIN Matricaria inodora) [%]	Post-emergence action at 20 g/ha against ECHCG in % [11] [%]	Pre-emergence action at 20 g/ha against POLCO in % [7] [%]	other results
CCNC(=O)c1c(C(F)(F)F)cc(F)c(C(=O)Nc2nnnn2C)c1C [Example 1-93]	100	80	100	100	80	100	90	80	90	90	80	80	90	90	90	–	–	–	Pre-emergence action at 20 g/ha against ABUTH in % [1]: 100%; Post-emergence action at 5 g/ha against PHBPU in % (PHBPU Pharbitis purpurea [9]; 5 g/ha): 80%
Cc1c(C(=O)Nc2nnnn2C)c(F)cc(C(F)(F)F)c1C(=O)N(C)C [Example 1-95]	–	90	90	100	80	90	–	–	90	–	80	100	–	90	–	–	–	–	Pre-emergence action at 20 g/ha against SETVI in % (SETVI Setaria viridis; 20 g/ha): 100%
CCN(C)C(=O)c1c(C(F)(F)F)cc(F)c(C(=O)Nc2nnnn2C)c1C [Example 1-96]	100	80	–	100	–	100	80	–	100	–	–	100	80	90	–	80	80	–	Post-emergence action at 20 g/ha against DIGSA in % [10]: 90%
Cc1c(C(=O)Nc2nnnn2C)c(F)cc(C(F)(F)F)c1C(=O)NCC(F)F [Example 1-385, N^1-(2,2-difluoroethyl)-4-fluoro-2-methyl-N^3-(1-methyl-1H-tetrazol-5-yl)-6-(trifluoromethyl)isophthalamide]	80	90	90	100	80	100	–	–	90	80	–	90	90	90	–	–	–	–	–
CCNC(=O)c1c(C(F)(F)F)cc(OC)c(C(=O)Nc2nnnn2C)c1Cl [Example 1-388]	–	–	–	–	–	–	–	–	–	–	–	–	–	80	–	–	–	–	–
CCn1nnnc1NC(=O)c1c(F)cc(C(F)(F)F)c(C(=O)NC)c1C [Example 2-92]	80	–	100	100	80	100	–	90	90	80	90	–	90	90	80	90	80	80	–
CCNC(=O)c1c(C(F)(F)F)cc(F)c(C(=O)Nc2nnnn2CC)c1C [Example 2-93, N^1-ethyl-N^3-(1-ethyl-1H-tetrazol-5-yl)-4-fluoro-2-methyl-6-(trifluoromethyl)isophthalamide]	100	90	100	100	–	100	80	–	90	90	–	80	80	90	90	80	–	–	Pre-emergence action at 20 g/ha against PHBPU in % (PHBPU Pharbitis purpurea [6]; 20 g/ha): 80%
CCn1nnnc1NC(=O)c1c(F)cc(C(F)(F)F)c(C(=O)N(C)C)c1C [Example 2-95, N′-(1-ethyl-1H-tetrazol-5-yl)-4-fluoro-N,N,2-trimethyl-6-(trifluoromethyl)isophthalamide]	100	90	–	100	90	100	80	80	90	–	100	90	–	–	80	–	–	80	–
CCn1nnnc1NC(=O)c1c(F)cc(C(F)(F)F)c(C(=O)NCC2CC2)c1C [Example 2-384]	100	80	100	100	80	100	80	–	100	80	100	80	90	90	–	–	80	90	Pre-emergence action at 20 g/ha against ABUTH in % [1]: 90%
CCn1nnnc1NC(=O)c1c(F)cc(C(F)(F)F)c(C(=O)NCC#N)c1C [Example 2-386]	–	–	–	100	–	–	–	–	80	–	80	–	–	–	–	–	–	–	–

Source: patent US20230150953A1, “SUBSTITUTED ISOPHTHALIC ACID DIAMIDES” (Bayer Aktiengesellschaft, priority 2020, published 2023)
